# B1: spartalizumab: single agent ICPI in a phase II study in refractory NEC (antibody, chains of the INN, looked up, V domains shown)
# VH: EVQLVQSGAEVKKPGESLRISCKGSGYTFTTYWMHWVRQATGQGLEWMGNIYPGTGGSNFDEKFKNRVTITADKSTSTAYMELSSLRSEDTAVYYCTRWTTGTGAYWGQGTTVTVSS
# VL: EIVLTQSPATLSLSPGERATLSCKSSQSLLDSGNQKNFLTWYQQKPGQAPRLLIYWASTRESGVPSRFSGSGSGTDFTFTISSLEAEDAATYYCQNDYSYPYTFGQGTKVEIK
# How the values were obtained:
# [1] = test system: breast cancer cells; details: cited from earlier work
# [2] = test system: BON-1 cells; test: Annexin V FITC apoptosis analysis; assay type: cell-based, human; details: 3 uM or 6 uM TQ, 72 h
# Method: (§1) About 30,000 BON-1 cells were grown in triplicate in 6 well plates overnight. The next day cells were exposed to 3 uM or 6 uM TQ (or control) for 72 h followed by Annexin V FITC apoptosis analysis. See, e.g., Demchenko 2012, Exp. Oncol. 34, 263-268. In addition, BON-1 cells grown and treated under similar experimental conditions were evaluated by Western blotting for the presence of cleaved PARP-a marker of apoptosis. See, e.g., Chaitanya et al. 2010, Cell Comm. Signal. 8, 31.
# [3] = test system: pancreatic ductal adenocarcinoma tumor models; test: TQ inhibitory action in pancreatic ductal adenocarcinoma tumor models; assay type: cell-based
# [4] = test system: Bon-1 (or QGP-1) cells; test: Colony formation assay; assay type: cell-based, human; details: 2.5 uM or 12.5 uM TQ 72 hrs, then 12 days drug free; p<0.01
# Method: About 500 Bon-1 (or QGP-1) cells were seeded in 6-well plates in triplicate and allowed to attach overnight. On the following day, cells were treated with 2.5 uM or 12.5 uM TQ (or control) for 72 hrs. After treatment, cells were replenished with drug free media for 12 days and subjected to 0.5% crystal violet staining. Bar diagrams (FIG. 1B) show the number of colonies at the indicated TQ concentration.
# [5] = test system: QGP-1 cells; test: Cell viability (MTT) assay, QGP-1 cells; assay type: cell-based, human; details: 72 hrs
# Method: (§2) TQ activity was evaluated in two human pancreatic neuroendocrine tumor (pNEN) cell lines: (1) BON-1 cells, established from a lymph node metastasis of a pNET (Evers et al. 1991, Gastroenterology. 101, 303-311); and (2) QGP-1 cells, established from primary somatostatin producing pNET (Kaku et al. 1980, Gan. 71, 596-601). […] See Vandamme et al. 2015, J. Mol. Endocrinol. 54, 137-147.
# (§3) About 5000 Bon-1 or 5000 QGP-1 cells were grown in 96-well plates overnight. On the following day, the cells were exposed to the indicated concentrations of TQ for 72 hrs. At the end of the treatment period, a standard MTT assay was performed to measure cell proliferation and conversely, in the presence of TQ, the reduction in cell viability The values represent 6 replicates per dose from three independent experiments.
# [6] = test system: BON-1 cells; test: Cell viability (MTT) assay, BON-1 cells; assay type: cell-based, human; details: 72 hrs
# Method: as §2, §3
# [7] = test system: PARP cleavage in BON-1 cells; test: Western blotting for cleaved PARP; assay type: cell-based, human; details: 3 uM or 6 uM TQ, 72 h
# Method: as §1
# [8] = test system: patients with refractory poorly differentiated NEC; details: cited from earlier work
# [9] = test system: patients with refractory high grade (G3) NENs; details: cited from earlier work
# [10] = test system: refractory NEC patients; details: high-grade NEC group of 21 patients; cited from earlier work
molecule,measurement,setting,value
CCCCCCCCCOc1c(CCCC(=O)O)cc(-c2ccc(C(=O)O)cc2)cc1CCCC(=O)O [CNBDA],inhibitory effects against breast cancer cells,[1],significant inhibitory effects
"CC1=CC(=O)C(C(C)C)=CC1=O [TQ, Thymoquinone]","apoptosis (Annexin V-FITC staining, flow cytometry)",[2],induced significant apoptosis
same,IC50,[3],high uM range
same,long term growth in colony formation assay,[4],suppressed long term growth
same,IC50 (cell viability),[5],low uM range
same,IC50 (cell viability),[6],low uM range
same,PARP cleavage product (western blot),[7],dose dependent accumulation of the PARP cleavage product
nivolumab: anti-PD-1 antibody,ORR,[8]; at 8 weeks,7.2%
same,OS,[8],7.2 months
same,PFS,[8],1.8 months
pembrolizumab: anti-PD1 antibody,objective response rate (ORR),[9],5%
B1,ORR,[10],4.8%
same,OS,[10],6.8 months
same,PFS,[10],1.8 months
